Data published in ChEMBL document CHEMBL5543075, “Phenoxytacrine derivatives: Low-toxicity neuroprotectants exerting affinity to ifenprodil-binding site and cholinesterase inhibition” (Eur J Med Chem, 2024).
Activity calls are given as the source filed them. The calls are words filed in the database; no cut-off is given here.

Columns and labels:
[1] = Cytotoxicity against CHO-K1 cells incubated for 24 hrs by MTT assay; assay type: toxicity, cell-based, Cricetulus griseus; conditions: Chinese hamster
Acetylcholinesterase = Acetylcholinesterase (Homo sapiens, UniProt P22303); experiment: Inhibition of human AChE by spectrophotometric Ellman's method
Cholinesterase = Cholinesterase (Homo sapiens, UniProt P06276); experiment: Inhibition of human BChE by spectrophotometric Ellman's method
[2] = molecular target: T1, Glutamate NMDA receptor; GRIN1/GRIN2B (Homo sapiens, UniProt Q05586+Q13224); experiment: Inhibition of recombinant human GluN1/GluN2B receptor expressed in HEK293 cells assessed as reduction in glutamate induced current at 1 uM at -60 mV holding potential by electrophysiology assay relative to control; assay type: cell-based
[3] = molecular target: T2, Glutamate NMDA receptor; GRIN1/GRIN2A (Homo sapiens, UniProt Q05586+Q12879); experiment: Inhibition of recombinant wild type human GluN1/GluN2A receptor expressed in HEK293 cells assessed as reduction in glutamate induced current at -60 mV holding potential by electrophysiology assay; assay type: cell-based
[4] = molecular target: T1, Glutamate NMDA receptor; GRIN1/GRIN2B; experiment: Inhibition of recombinant wild type human GluN1/GluN2B receptor expressed in HEK293 cells assessed as reduction in glutamate induced current at -60 mV holding potential by electrophysiology assay; assay type: cell-based
[5] = Inhibition of recombinant human GluN1 deltaATD/GluN2B receptor expressed in HEK293 cells assessed as reduction in glutamate induced current at -60 mV holding potential by electrophysiology assay; assay type: cell-based
[6] = Toxicity in Wistar rat assessed as no observed adverse effect level (NOAEL) at 10 mg/kg, ip; assay type: organism-based; conditions: in vivo
[7] = Toxicity in Wistar rat assessed as no observed adverse effect level (NOAEL) at 20 mg/kg, ip measured after 10 to 15 mins; assay type: organism-based; conditions: in vivo, time 10-15 min
Rattus norvegicus [8] = experiment: Antipsychotic activity in Wistar rat assessed as effect on locomotor activity at 2 mg/kg, ip measured after 10 mins by open field test; assay type: functional, organism-based
Rattus norvegicus [9] = experiment: Antipsychotic activity in Wistar rat assessed as effect on pre-pulse inhibition of acoustic startle response at 2 mg/kg, ip measured after 10 mins by pre-pulse inhibition test; assay type: functional, organism-based
Rattus norvegicus [10] = experiment: Antialzheimer activity against scopolamine-induced cognitive impairment in Wistar rat assessed as decrease in latency to reach platform at 2 mg/kg, ip measured upto 4 days by morris water maze test; assay type: functional, organism-based; conditions: time <= 4.0 day
Hippocampal neurone = experiment: Neuroprotective activity against NMDA-induced cell injury in rat Hippocampal neuron cells assessed as decrease in damage score at 30 uM measured after 24 hrs by FJB staining based microscopy; assay type: functional
in vitro [11] = conditions: human, liver microsomes
Description: Metabolic stability in human liver microsomes assessed as half life at 3 uM measured upto 45 min in presence of NADPH regenerating system by LC-MS analysis

in vitro [12] = conditions: human, liver microsomes; remark: listed apart in the source
Description: Metabolic stability in human liver microsomes assessed as intrinsic clearance at 3 uM measured upto 45 min in presence of NADPH regenerating system by LC-MS analysis

[13] = Inhibition of recombinant human GluN1 F113A /GluN2B receptor expressed in HEK293 cells assessed as reduction in glutamate induced current at -60 mV holding potential by electrophysiology assay; assay type: cell-based
[14] = Inhibition of recombinant human GluN1 Y109C /GluN2B receptor expressed in HEK293 cells assessed as reduction in glutamate induced current at -60 mV holding potential by electrophysiology assay; assay type: cell-based
[15] = Inhibition of recombinant human GluN1/GluN2B Q110F mutant receptor expressed in HEK293 cells assessed as reduction in glutamate induced current at -60 mV holding potential by electrophysiology assay; assay type: cell-based
[16] = Inhibition of recombinant human GluN1/GluN2B F114A mutant receptor expressed in HEK293 cells assessed as reduction in glutamate induced current at -60 mV holding potential by electrophysiology assay; assay type: cell-based
[17] = molecular target: T2, Glutamate NMDA receptor; GRIN1/GRIN2A; experiment: Inhibition of recombinant wild type human GluN1/GluN2A receptor expressed in HEK293 cells assessed as reduction in glutamate induced current at -40 mV holding potential by electrophysiology assay; assay type: cell-based
[18] = molecular target: T1, Glutamate NMDA receptor; GRIN1/GRIN2B; experiment: Inhibition of recombinant wild type human GluN1/GluN2B receptor expressed in HEK293 cells assessed as reduction in glutamate induced current at -40 mV holding potential by electrophysiology assay; assay type: cell-based
[19] = Inhibition of recombinant human GluN1 deltaATD/GluN2B receptor expressed in HEK293 cells assessed as reduction in glutamate induced current at -40 mV holding potential by electrophysiology assay; assay type: cell-based
[20] = Inhibition of recombinant human GluN1 F113A /GluN2B receptor expressed in HEK293 cells assessed as reduction in glutamate induced current at -40 mV holding potential by electrophysiology assay; assay type: cell-based
[21] = Inhibition of recombinant human GluN1 Y109C /GluN2B receptor expressed in HEK293 cells assessed as reduction in glutamate induced current at -40 mV holding potential by electrophysiology assay; assay type: cell-based
[22] = Inhibition of recombinant human GluN1/GluN2B Q110F mutant receptor expressed in HEK293 cells assessed as reduction in glutamate induced current at -40 mV holding potential by electrophysiology assay; assay type: cell-based
[23] = Inhibition of recombinant human GluN1/GluN2B F114A mutant receptor expressed in HEK293 cells assessed as reduction in glutamate induced current at -40 mV holding potential by electrophysiology assay; assay type: cell-based
[24] = Toxicity in Wistar rat assessed as no observed adverse effect level (NOAEL) at 5 mg/kg, ip; assay type: organism-based; conditions: in vivo
[25] = Toxicity in Wistar rat assessed as reduction in breathing at 10 mg/kg, ip; assay type: organism-based; conditions: in vivo
[26] = Toxicity in Wistar rat assessed as loss of activity at 10 mg/kg, ip; assay type: organism-based; conditions: in vivo
Rattus norvegicus [27] = experiment: Antipsychotic activity in Wistar rat assessed as effect on locomotor activity at 5 mg/kg, ip measured after 10 mins by open field test; assay type: functional, organism-based
Rattus norvegicus [28] = experiment: Antipsychotic activity in Wistar rat assessed as effect on pre-pulse inhibition of acoustic startle response at 5 mg/kg, ip measured after 10 mins by pre-pulse inhibition test; assay type: functional, organism-based
Rattus norvegicus [29] = experiment: Antialzheimer activity against scopolamine-induced cognitive impairment in Wistar rat assessed as decrease in latency to reach platform at 5 mg/kg, ip measured upto 4 days by morris water maze test; assay type: functional, organism-based; conditions: time <= 4.0 day
Rattus norvegicus [30] = experiment: Antialzheimer activity against scopolamine-induced cognitive impairment in Wistar rat assessed as decrease in mean distance from platform at 5 mg/kg, ip measured upto 4 days by morris water maze test (reference value: 51.7 +/-1.5 cm); assay type: functional; conditions: time <= 4 day
Rattus norvegicus [31] = experiment: Antialzheimer activity against scopolamine-induced cognitive impairment in Wistar rat assessed as increase in number of platform crossing at 5 mg/kg, ip measured upto 4 days by morris water maze test; assay type: functional, organism-based; conditions: time <= 4.0 day
Rattus norvegicus [32] = experiment: Antipsychotic activity in Wistar rat assessed as effect on locomotor activity at 0.2 mg/kg, ip measured after 10 mins by open field test; assay type: functional, organism-based
Rattus norvegicus [33] = experiment: Antipsychotic activity in Wistar rat assessed as effect on pre-pulse inhibition of acoustic startle response at 0.3 mg/kg, ip measured after 10 mins by pre-pulse inhibition test; assay type: functional, organism-based

Chain of Acetylcholinesterase (P22303 whole entry): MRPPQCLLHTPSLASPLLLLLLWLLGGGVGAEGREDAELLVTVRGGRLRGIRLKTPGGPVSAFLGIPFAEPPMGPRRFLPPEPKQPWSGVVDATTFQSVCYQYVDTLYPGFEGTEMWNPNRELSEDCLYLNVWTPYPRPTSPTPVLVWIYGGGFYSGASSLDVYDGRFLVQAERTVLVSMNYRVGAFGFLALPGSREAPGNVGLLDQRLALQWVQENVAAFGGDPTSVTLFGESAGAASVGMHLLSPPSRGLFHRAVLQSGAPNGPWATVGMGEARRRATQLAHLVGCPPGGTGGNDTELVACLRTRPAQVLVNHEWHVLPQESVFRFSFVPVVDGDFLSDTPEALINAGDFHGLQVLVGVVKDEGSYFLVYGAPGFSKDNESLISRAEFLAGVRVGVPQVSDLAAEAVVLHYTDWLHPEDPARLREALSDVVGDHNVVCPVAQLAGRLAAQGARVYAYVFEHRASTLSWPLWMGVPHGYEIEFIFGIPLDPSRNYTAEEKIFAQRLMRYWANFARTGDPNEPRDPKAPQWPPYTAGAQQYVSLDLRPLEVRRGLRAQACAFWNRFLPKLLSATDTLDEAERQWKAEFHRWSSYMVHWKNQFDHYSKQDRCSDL
Chain of Cholinesterase (P06276 whole entry): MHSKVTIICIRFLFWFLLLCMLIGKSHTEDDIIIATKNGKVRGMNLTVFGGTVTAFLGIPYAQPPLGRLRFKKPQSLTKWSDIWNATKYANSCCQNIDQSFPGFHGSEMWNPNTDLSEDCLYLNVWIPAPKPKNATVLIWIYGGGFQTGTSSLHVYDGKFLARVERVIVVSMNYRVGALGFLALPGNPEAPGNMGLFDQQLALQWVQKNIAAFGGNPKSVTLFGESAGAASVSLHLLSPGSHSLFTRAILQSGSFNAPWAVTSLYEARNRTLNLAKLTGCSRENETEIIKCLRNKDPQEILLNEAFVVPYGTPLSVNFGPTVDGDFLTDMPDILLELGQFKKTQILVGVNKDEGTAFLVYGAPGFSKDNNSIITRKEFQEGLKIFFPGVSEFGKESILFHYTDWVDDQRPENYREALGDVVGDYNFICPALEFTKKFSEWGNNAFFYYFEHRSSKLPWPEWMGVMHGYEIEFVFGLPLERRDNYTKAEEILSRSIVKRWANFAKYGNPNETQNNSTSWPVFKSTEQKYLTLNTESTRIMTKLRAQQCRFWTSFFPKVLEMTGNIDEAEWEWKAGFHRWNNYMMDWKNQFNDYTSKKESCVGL
T2 sequence (Q12879 whole entry, other chains not shown): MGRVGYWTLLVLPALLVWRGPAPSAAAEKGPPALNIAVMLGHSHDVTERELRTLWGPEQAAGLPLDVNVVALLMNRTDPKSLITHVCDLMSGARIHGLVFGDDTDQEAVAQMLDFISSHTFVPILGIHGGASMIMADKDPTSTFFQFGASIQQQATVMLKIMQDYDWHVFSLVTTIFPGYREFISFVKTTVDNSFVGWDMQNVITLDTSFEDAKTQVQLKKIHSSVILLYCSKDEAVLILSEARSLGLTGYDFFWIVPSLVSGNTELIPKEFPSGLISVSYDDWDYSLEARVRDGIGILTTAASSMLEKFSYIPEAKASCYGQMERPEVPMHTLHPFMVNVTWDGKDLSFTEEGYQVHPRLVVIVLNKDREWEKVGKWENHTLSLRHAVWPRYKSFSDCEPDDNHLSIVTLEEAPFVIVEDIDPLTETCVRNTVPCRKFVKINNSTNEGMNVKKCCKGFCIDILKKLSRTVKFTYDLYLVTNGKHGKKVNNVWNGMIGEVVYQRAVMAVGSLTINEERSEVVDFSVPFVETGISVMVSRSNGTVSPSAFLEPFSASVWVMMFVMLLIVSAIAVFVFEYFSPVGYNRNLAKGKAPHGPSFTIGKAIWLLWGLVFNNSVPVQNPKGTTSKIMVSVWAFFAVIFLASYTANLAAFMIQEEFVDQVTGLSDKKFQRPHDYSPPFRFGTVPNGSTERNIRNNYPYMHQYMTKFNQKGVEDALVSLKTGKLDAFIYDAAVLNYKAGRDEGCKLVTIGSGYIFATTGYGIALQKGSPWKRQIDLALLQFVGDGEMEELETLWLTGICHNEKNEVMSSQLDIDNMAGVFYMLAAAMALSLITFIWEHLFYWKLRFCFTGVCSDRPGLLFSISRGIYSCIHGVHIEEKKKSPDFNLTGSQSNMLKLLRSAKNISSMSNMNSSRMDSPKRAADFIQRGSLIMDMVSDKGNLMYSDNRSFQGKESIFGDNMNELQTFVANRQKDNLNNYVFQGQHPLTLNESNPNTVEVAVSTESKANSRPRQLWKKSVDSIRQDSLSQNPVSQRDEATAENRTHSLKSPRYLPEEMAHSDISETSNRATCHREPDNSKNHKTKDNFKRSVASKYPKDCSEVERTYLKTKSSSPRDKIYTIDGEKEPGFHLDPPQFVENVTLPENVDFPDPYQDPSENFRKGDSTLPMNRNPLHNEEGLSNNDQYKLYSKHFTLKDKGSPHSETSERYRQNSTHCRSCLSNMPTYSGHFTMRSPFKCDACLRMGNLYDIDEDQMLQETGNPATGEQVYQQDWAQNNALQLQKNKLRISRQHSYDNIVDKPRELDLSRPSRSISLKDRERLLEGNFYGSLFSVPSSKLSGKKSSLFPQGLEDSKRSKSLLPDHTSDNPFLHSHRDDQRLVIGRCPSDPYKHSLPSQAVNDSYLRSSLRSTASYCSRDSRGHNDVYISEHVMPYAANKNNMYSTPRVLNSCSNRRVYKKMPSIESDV

`COc1ccccc1Oc1ccc2nc3c(c(N)c2c1)CCC3.Cl` gave an IC50 at 24 h [1] of 68 µM, an IC50 (Acetylcholinesterase) of 8.52 µM and an IC50 (Cholinesterase) of 5.48 µM. The inhibition [2] was 35%, the IC50 [3] was 5.1 µM and the IC50 [4] was 2400 nM. For the same compound, the IC50 [5] was 5.2 µM, the Activity [6] was “Non-Toxic” and the Activity [7] was “Toxic”. The Activity (Rattus norvegicus [8]) was “inactive”, the Activity (Rattus norvegicus [9]) was “inactive” and the Activity (Rattus norvegicus [10]) was “Active”. For the same compound, the Activity (Hippocampal neurone) was “Active”, the half-life at 0.75 h, 3 µM (in vitro [11]) was 69.3 min and the microsomal CLint at 0.75 h, 3 µM (in vitro [12]) was 20 µL/min/mg.

Work on `COc1ccc(Oc2ccc3nc4c(c(N)c3c2)CCCC4)cc1` yielded an IC50 at 24 h [1] of 26 µM, an IC50 (Acetylcholinesterase) of 2.9 µM and an IC50 (Cholinesterase) of 7.26 µM. For the same compound, the inhibition [2] was 33.2%.

`CC(=O)c1ccc(Oc2ccc3nc4c(c(N)c3c2)CCC4)cc1` gave an IC50 at 24 h [1] of 69 µM, an IC50 (Acetylcholinesterase) of 5.76 µM and an IC50 (Cholinesterase) of 16.5 µM. For the same compound, the inhibition [2] was 9.5%.

With `Nc1c2c(nc3ccc(Oc4ccccc4)cc13)CCCCC2` the IC50 at 24 h [1] was 38 µM, the IC50 (Acetylcholinesterase) was 5.36 µM and the IC50 (Cholinesterase) was 1.4 µM. The inhibition [2] was 34.9%.

In the case of `COc1ccccc1Oc1ccc2nc3c(c(N)c2c1)CCCC3.Cl`, the IC50 at 24 h [1] is reported as 43 µM, the IC50 (Acetylcholinesterase) is reported as 0.84 µM and the IC50 (Cholinesterase) is reported as 0.44 µM. For the same compound, the inhibition [2] was 25.7%, the IC50 [3] was 10.1 µM and the IC50 [4] was 3600 nM. It also gave an IC50 [5] of 11.1 µM, an IC50 [13] of 1700 nM and an IC50 [14] of 9.5 µM. For the same compound, the IC50 [15] was 9.5 µM, the IC50 [16] was 9.4 µM and the IC50 [17] was 43.8 µM. It also gave an IC50 [18] of 6.8 µM, an IC50 [19] of 47.2 µM and an IC50 [20] of 2100 nM. For the same compound, the IC50 [21] was 8.4 µM, the IC50 [22] was 10.3 µM and the IC50 [23] was 31.9 µM. For the same compound, the Activity [24] was “Non-Toxic”, the Activity [25] was “Toxic” and the Activity [26] was “Toxic”. For the same compound, the Activity (Rattus norvegicus [27]) was “inactive”, the Activity (Rattus norvegicus [28]) was “inactive” and the Activity (Rattus norvegicus [29]) was “inactive”. The Activity (Rattus norvegicus [30]) was 78.7 cm, the Activity (Rattus norvegicus [31]) was “inactive” and the half-life at 0.75 h, 3 µM (in vitro [11]) was 161 min. The microsomal CLint at 0.75 h, 3 µM (in vitro [12]) was 8.61 µL/min/mg.

Compound `Nc1c2c(nc3ccc(Oc4ccc(Cl)cc4)cc13)CCCC2` has an IC50 at 24 h [1] of 12 µM, an IC50 (Acetylcholinesterase) of 2.92 µM and an IC50 (Cholinesterase) of 3.32 µM. For the same compound, the inhibition [2] was 14.2%.

For `COc1cccc(Oc2ccc3nc4c(c(N)c3c2)CCCCC4)c1`, the IC50 at 24 h [1] was 21 µM, the IC50 (Acetylcholinesterase) was 4.25 µM and the IC50 (Cholinesterase) was 2.62 µM. The inhibition [2] was 7.1%.

Compound `CC(C)(C)c1ccc(Oc2ccc3nc4c(c(N)c3c2)CCC4)cc1` has an IC50 at 24 h [1] of 11 µM, an IC50 (Acetylcholinesterase) of 2.78 µM and an IC50 (Cholinesterase) of 3.11 µM. It also gave an inhibition [2] of 6.7%.

Compound `COc1ccc(Oc2ccc3nc4c(c(N)c3c2)CCC4)cc1` has an IC50 at 24 h [1] of 81 µM, an IC50 (Acetylcholinesterase) of 4.24 µM and an IC50 (Cholinesterase) of 14.5 µM. For the same compound, the inhibition [2] was 22.7%.

`Cc1ccc(Oc2ccc3nc4c(c(N)c3c2)CCCC4)cc1` gave an IC50 at 24 h [1] of 20 µM, an IC50 (Acetylcholinesterase) of 3.29 µM and an IC50 (Cholinesterase) of 1.95 µM. For the same compound, the inhibition [2] was 18%.

With `Cc1cc(C)cc(Oc2ccc3nc4c(c(N)c3c2)CCC4)c1` the IC50 at 24 h [1] was 39 µM, the IC50 (Acetylcholinesterase) was 3.72 µM and the IC50 (Cholinesterase) was 5.48 µM. It also gave an inhibition [2] of 9.6%.

With `C[C@]12N[C@H](Cc3ccccc31)c1ccccc12` the Activity (Rattus norvegicus [32]) was “Active” and the Activity (Rattus norvegicus [33]) was “Active”.

Work on `COc1ccccc1Oc1ccc2nc3c(c(N)c2c1)CCCCC3` yielded an IC50 at 24 h [1] of 74 µM, an IC50 (Acetylcholinesterase) of 9.62 µM and an IC50 (Cholinesterase) of 5.48 µM. It also gave an inhibition [2] of 57.6%.

In the case of `Nc1c2c(nc3ccc(Oc4ccc(Cl)cc4)cc13)CCCCC2`, the IC50 at 24 h [1] is reported as 90 µM, the IC50 (Acetylcholinesterase) is reported as 4.22 µM and the IC50 (Cholinesterase) is reported as 1.85 µM. It also gave an inhibition [2] of 12%.

In the case of `Cc1cccc(Oc2ccc3nc4c(c(N)c3c2)CCCCC4)c1`, the IC50 at 24 h [1] is reported as 13 µM, the IC50 (Acetylcholinesterase) is reported as 12.3 µM and the IC50 (Cholinesterase) is reported as 2.74 µM. For the same compound, the inhibition [2] was 14.8%.
